{
  "source": "patent US11759434B2",
  "about": "“Methods and compositions for treating melanoma and non-melanoma skin cancers” (Sytheon Limited, priority 2022, dated 2023)",
  "key": {"[1]": {"system": "AMPK", "experiment": "AMPK activation study (phosphorylation of AMPK at Thr-172) in epidermal keratinocytes", "format": "cell-based, human", "details": "for AMPK-P/Protein Ratio: two hours", "procedure": "(§1) AMPK activation is a known and efficacious treatment for melanoma and non-melanoma skin cancer (See. e.g., Chen. L. et. al., “AMPK Activation by GSK621 Inhibits Human Melanoma Cells In Vitro and In Vivo”, Biochemical and Biophysical Research Communications 480 (2016), 515-521). To ascertain the ability and efficacy of the compounds of Structure 1 to activate AMPK, a cell assay study was undertaken. In the study, human epidermal keratinocytes were grown using EpiLife Media (60 μM calcium) supplemented with 0.2% v/v bovine pituitary extract, 1 μg/ml recombinant human insulin-like growth factor-I, 0.18 μg/ml hydrocortisone, 5 μg/ml bovine transferrin, 0.2 ng/ml human epidermal growth factor. The cells were grown at 37±2° C. and 5±1% CO2. The keratinocytes were seeded into 96-well plates and cultured overnight to allow the cells to adhere to the well plates. Prior to experimental use, the growth media was replaced with basal media (unsupplemented EpiLife Media) for five hours prior to starting any treatments.\nThe ability of the test material to activate AMPK was determined by measuring the phosphorylation of AMPK. The epidermal keratinocytes were treated with the test material prepared in basal media for two hours. At the end of the two-hour incubation the culture media was removed and the cells were fixed in 4% formaldehyde for 20 minutes at room temperature. After the fixation, the cells were washed three times with wash solution (1 minute per wash) and any endogenous peroxidase activity was quenched by adding 100 ul of a 0.3% H2O2 solution to the wells and incubating the plate for another 20 minutes. After washing as described above, non-specific antibody binding was blocked by adding 200 ul of blocking buffer to each well and incubating the plate for 1 hour at room temperature. […] After this incubation the well plate was read using a fluorometer at 530ex/590em to determine AMPK phosphorylation and at 360ex/485em to determine total cellular protein."}, "[2]": {"system": "human epidermal keratinocytes", "experiment": "MTT assay (cell viability) after H2O2-induced senescence", "format": "cell-based", "procedure": "as §1\n(§2) The foregoing effect of AZ as an AMPK activator and, in turn, anti-melanoma treatment is especially surprising in light of the pro-viability effect of AZ in normal cells, even those in senescence. Specifically, following on the foregoing experimental methodology, additional studies were conducted on the human keratinocytes cells to assess AZ's impact on cell viability as evidenced by an MTT assay as well as an assessment of its impact on SA-B-Gal activity. In these studies, the human epidermal keratinocytes were treated in basal media for two hours with the test material and then treated with either 50 uM or 100 uM H2O2 in basal media for an additional two hours: the latter treatment to induce senescence. Following the H2O2 treatment, the cells were placed in with fully supplemented EpiLife media for either 16 hours after which changes in cell viability was evaluated via an MTT assay or for 3 days after which changes in the cellular senescence marker beta galactosidase (SA-B-GAL) was evaluated.\nMTT Calculation: the mean MIT absorbance value for untreated cells not exposed to H2O2 was calculated and used to represent 100% cell viability. The individual MIT values from the cells undergoing the various treatments was then divided by the mean value for the untreated cells not exposed to H2O2 and expressed as a percent to determine the change in cell viability caused by each treatment."}, "[3]": {"system": "patient derived, NRAS-mutated melanoma cells", "experiment": "Cell viability (Alamar blue) in melanoma cells", "format": "cell-based, human", "details": "3 days treatment, 3 biological repeats", "procedure": "(§3) In support of the present teachings several experiments were conducted to assess the cytotoxicity of compound 1 (Acetyl Zingerone CAT), available as Synoxyl® AZ from Sytheon Ltd.) and Compound 4, its mono-methoxy analog (3-(4-Methoxy-benzyl)-pentane-2,4-dione (MBPD)), towards normal melanocytes (Normal, C57BL/6 mouse melanocytes, darkly pigmented), and patient derived, NRAS-mutated melanoma cells. On Day 1, the melanoma cells and normal melanocytes were seeded into the black walled 96 well plates (cat. no.—165305, thermo), ˜1000 cells per well and allowed to stand for one day. […] Thereafter, the dye was replaced with 100 ul PBS (Cat. no. 14190-144, Gibco) and cell viability as evidenced by fluorescence was recorded (by Biotek synergy/H1 microplate reader) at 560/590 nm. Cell survival was calculated by subtracting the background (media only) and then normalizing those results with the results obtained from the cells that were not treated with AZ or MBPD. […]"}, "[4]": {"system": "Senescent Associated β-Galactosidase (SA-B-Gal)", "experiment": "Senescent Associated β-Galactosidase (SA-B-Gal) activity assay", "format": "cell-based, human", "details": "3 days", "procedure": "as §1, §2\nSA-B-GAL Calculation: To determine the changes in SA-B-GAL expression a direct measure of SA-B-GAL activity was used. At the end of the three-day incubation the media was removed, 100 ul of ice-cold cell lysis buffer was added and the cells were lysed for 5 minutes at 4° C. At the end of this lysis procedure a portion of the lysate was used for a protein assay while 50 ul of the cell lysate was transferred to a new well plate and combined with an equal volume of SA-B-GAL reaction buffer containing a fluorescent substrate. This well plate was then incubated for 3 hours at 37° C., after which a 50 ul sample of the reaction was combined with 200 ul of stop solution in a new well plate and the plate was read using a fluorometer (360ex/485em), The fluorescence intensity was then normalized to cellular protein and this ratio was used as an index of SA-B-GAL activity."}, "[5]": {"system": "Trametinib resistant human, NRAS mutated, WM1366 melanoma cells", "experiment": "MBPD/Trametinib synergy, cell viability (Alamar blue)", "format": "cell-based", "method": "Specifically, Trametinib resistant human, NRAS mutated, WM1366 melanoma cells were created in-house by sequentially treating the cells with various concentrations (2 nM-10 nM) of Trametinib for several weeks. Those cells which survived 2 nM Trametinib after two weeks, were then incubated with 4 nM Trametinib and those that survived 4 nM Trametinib for two weeks were isolated and then incubated with 10 nM for several weeks. This led to development of resistance in the WM1366 cells.\nIn this study, the Trametinib resistant cells were seeded into black walled 96 well plates (cat. no.—165305, thermo), ˜1000 cells per well employing the same media as noted in Example 1. On Day 2, the cells were treated with 125 or 62.5 μg/ml MBPD and incubated for 48 hours. After 48 hours, fresh cell-culture medium was added with MBPD and Trametinib at concentrations of 30, 15, 7.5, 3.75, 1.875, and 0.9375 nM and the cells allowed to sit for 72 hours. On Day 7, Alamar blue (cat. no. A50101, invitrogen) was added to each well and the cultures incubated for 1 hr in a CO2 incubator. Thereafter, the dye was replaced with 100 ul PBS (Cat no. 14190-144, Gibco) and cell viability as evidenced by fluorescence was recorded (by Biotek synergy/H1 microplate reader) at 560/590 nm.\nMolar (M) IC50 values were calculated using formula weight of each of the compounds individually."}, "[6]": {"system": "Normal, C57BL/6 mouse melanocytes, darkly pigmented", "experiment": "Cell viability (Alamar blue) in normal melanocytes", "format": "cell-based", "details": "Melanocyte, 72 h, 3 days treatment, 4 biological repeats", "procedure": "as §3"}},
  "data": [
    {"smiles": "COc1cc(CC(C(C)=O)C(C)=O)ccc1O", "note": "[AZ, Acetyl Zingerone]", "values": [
      {"measurement": "AMPK-P/Protein Ratio", "setting": "[1]; 25 μg/ml", "value": "4.16 ± 0.65"},
      {"measurement": "increase of AMPK activity", "setting": "[1]; 50 μg/ml", "value": 88.3, "unit": "%"},
      {"measurement": "AMPK-P/Protein Ratio", "setting": "[1]; 50 μg/ml", "value": "6.48 ± 1.10"},
      {"measurement": "Viability (% of non-H2O2 exposed cells)", "setting": "[2]; 12.5 μg/ml, 50 μM H2O2", "value": "79.9 ± 11.5", "unit": "%"},
      {"measurement": "Viability (% of non-H2O2 exposed cells)", "setting": "[2]; 12.5 μg/ml, 100 μM H2O2", "value": "79.1 ± 1.4", "unit": "%"},
      {"measurement": "Viability (% of non-H2O2 exposed cells)", "setting": "[2]; 25 μg/ml, 50 μM H2O2", "value": "76.1 ± 6.9", "unit": "%"},
      {"measurement": "Viability (% of non-H2O2 exposed cells)", "setting": "[2]; 25 μg/ml, 100 μM H2O2", "value": "77.4 ± 9.6", "unit": "%"},
      {"measurement": "Viability (% of non-H2O2 exposed cells)", "setting": "[2]; 50 μg/ml, 50 μM H2O2", "value": "100.7 ± 8.3", "unit": "%"},
      {"measurement": "Viability (% of non-H2O2 exposed cells)", "setting": "[2]; 50 μg/ml, 100 μM H2O2", "value": "100.2 ± 6.5", "unit": "%"},
      {"measurement": "IC50", "setting": "[3]", "value": 1300, "unit": "µM"},
      {"measurement": "SA-B-Gal Activity/Protein", "setting": "[4]; 12.5 μg/ml, 50 μM H2O2", "value": "3.45 ± 0.29"},
      {"measurement": "SA-B-Gal Activity/Protein", "setting": "[4]; 12.5 μg/ml, 100 μM H2O2", "value": "3.29 ± 0.37"},
      {"measurement": "SA-B-Gal Activity/Protein", "setting": "[4]; 25 μg/ml, 50 μM H2O2", "value": "3.30 ± 0.23"},
      {"measurement": "SA-B-Gal Activity/Protein", "setting": "[4]; 25 μg/ml, 100 μM H2O2", "value": "3.95 ± 0.36"},
      {"measurement": "SA-B-Gal Activity/Protein", "setting": "[4]; 50 μg/ml, 50 μM H2O2", "value": "0.91 ± 0.06"},
      {"measurement": "SA-B-Gal Activity/Protein", "setting": "[4]; 50 μg/ml, 100 μM H2O2", "value": "0.90 ± 0.15"}
    ]},
    {"smiles": "COc1ccc(CC(C(C)=O)C(C)=O)cc1", "note": "[MBPD, 3-(4-Methoxy-benzyl)-pentane-2,4-dione]", "values": [
      {"measurement": "IC50", "setting": "[3]; Homo sapiens, 72 h", "value": 400, "unit": "µM"},
      {"measurement": "reduction of the Trametinib IC50 by MBPD", "setting": "[5]; 125 or 62.5 μg/ml MBPD, 48 h pre-incubation then MBPD plus Trametinib 72 h, 2 biological repeats", "value": "~5", "unit": "fold"},
      {"measurement": "IC50", "setting": "[6]", "value": 14400, "unit": "µM"}
    ]},
    {"smiles": "CC(=O)Nc1cccc(-n2c(=O)n(C3CC3)c(=O)c3c(Nc4ccc(I)cc4F)n(C)c(=O)c(C)c32)c1", "note": "[Trametinib, trametinib, reference compound]", "values": [
      {"measurement": "IC50", "setting": "[5]; Homo sapiens, in-house generated, Trametinib resistant, NRAS-mutated melanoma cells", "value": "0.01 to 0.02", "unit": "µM"}
    ]}
  ]
}
